The text below walks through data of ChEMBL document CHEMBL1201862, “PubChem BioAssay data set” (2004).

Some test systems named below: DMS-114; DMS-273; KM-20L2; LXFL 529; M19-MEL; RXF 631; SNB-78; XF498; BT-549.
Assay in all cases: inhibition of tumour cell growth, NCI panel, 48 h

Structures are written as SMILES.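 48-hour exposure; five concentrations; linearly interpolated endpoints. GI50: concentration for 50% inhibition of growth.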 Activity calls are given as the source filed them. Rule as the data show it: active = GI50 up to about 1.1 µM and inactive = higher. Bounds are passed on as bounds.

With `Cn1c(N)nc(=O)c2c1N(C1OC(CO)C(O)C1O)CN2Cc1ccccc1` (stereo unspecified), the GI50 in the test on DMS-114, in the test with DMS-273, in the test on KM-20L2, in the test with LXFL 529, with M19-MEL and in the test with RXF 631 was > 100 µM (inactive) each time. The GI50 in the test with SNB-78 and in the test with XF498 was > 100 µM (inactive) in each case.
For `O=C(O)CCC(N/C=C1/N=C(c2ccccc2)OC1=O)C(=O)O` (stereo unspecified), the GI50 in the test on DMS-114, in the test on DMS-273, in the test with KM-20L2, in the test with LXFL 529, with M19-MEL and in the test on RXF 631 was > 100 µM (inactive) in each case. Also, the GI50 in the test on SNB-78 is > 100 µM (inactive).
For the compound `Cc1ccccc1/C=N/C12CC3CC(CC(C3)C1)C2`, the GI50 in the test on DMS-114, with DMS-273, in the test on KM-20L2, with LXFL 529, in the test with M19-MEL and with RXF 631 was > 100 µM (inactive) in each case. The GI50 with SNB-78 was > 100 µM (inactive).
With `O=C(CCN1CCCC1)CC(c1ccccc1)c1c(O)c2ccccc2oc1=O` (stereo unspecified), the GI50 in the test with DMS-114, in the test on DMS-273, in the test on KM-20L2, in the test with LXFL 529, with M19-MEL and in the test on SNB-78 was > 100 µM (inactive) in each case. In addition, the GI50 in the test with XF498 is > 100 µM (inactive).
Turning to `C=CCn1c(=O)c(C(=O)NC(=O)OCC)cn(C2CCCCC2)c1=O`, the GI50 in the test on DMS-114, in the test with DMS-273, with KM-20L2, in the test with LXFL 529, with RXF 631 and in the test on SNB-78 was > 100 µM (inactive) in each case. Further, in the test with XF498, the GI50 was > 100 µM (inactive).
Regarding `Cc1ccc(N2C(=O)CS/C2=C(\C#N)c2nc3ccccc3[nH]2)cc1`, the GI50 in the test with DMS-114, with DMS-273, in the test with KM-20L2, in the test on LXFL 529, with M19-MEL and with XF498 was > 100 µM (inactive) each time.
Regarding `O=C(O)OC12CCCCCC1C(=O)C1CCCCC12` (stereo unspecified), the GI50 with DMS-114 was 82 µM (inactive); with DMS-273, 62.5 µM (inactive); in the test with KM-20L2, > 100 µM (inactive); in the test on LXFL 529, > 100 µM (inactive); with M19-MEL, > 100 µM (inactive); with SNB-78 it was > 100 µM (inactive). For the same compound, the GI50 in the test with XF498 is 82.6 µM (inactive).
Consider `O=C(NCCCCCCNC(=O)n1cc(F)c(=O)[nH]c1=O)NCCCOCCOCCOCCOCCOCCOCCOCCOCCOCCOCCOCCOCCOCCOCCOCCOCCOCCOCCOCCOCCOCCCNC(=O)C(O)C(O)C(O)C(O)CO` (stereo unspecified), for which the GI50 is 37.7 µM (inactive) in the test on BT-549; > 100 µM (inactive) in the test with DMS-114; 33.3 µM (inactive) in the test with DMS-273; 22.5 µM (inactive) in the test with KM-20L2; 61.7 µM (inactive) in the test on M19-MEL; > 100 µM (inactive) in the test with SNB-78. For the same compound, the GI50 in the test with XF498 was 15.6 µM (inactive).
Consider `O=C1OC(c2ccccc2)=N/C1=C\c1cccc2ccccc12`, for which the GI50 with DMS-114, in the test with DMS-273, in the test on LXFL 529, in the test on M19-MEL, in the test on SNB-78 and in the test on XF498 was > 100 µM (inactive) in each case.
As for `N#CN=C(NCc1ccccc1)NCc1ccccc1`, the GI50 with DMS-114 is > 38.3 µM (inactive); in the test with DMS-273, > 41.9 µM (inactive); with KM-20L2 it was > 100 µM (inactive); with LXFL 529 it was > 92 µM (inactive); in the test with M19-MEL, > 54.7 µM (inactive); with SNB-78, > 100 µM (inactive). In addition, the GI50 in the test with XF498 was > 77.1 µM (inactive).
On to `COc1ccc(/C(Cl)=C(\C=O)c2ccc([N+](=O)[O-])cc2)cc1OC`, for which the GI50 in the test on DMS-114 was 5.78 µM (inactive); in the test on DMS-273, 11.8 µM (inactive); with KM-20L2 it was 12.2 µM (inactive); in the test with LXFL 529, 3.23 µM (inactive); in the test on M19-MEL, 11 µM (inactive); in the test with RXF 631 it was 12.4 µM (inactive). For the same compound, the GI50 with SNB-78 is 4.3 µM (inactive); with XF498, 7.4 µM (inactive).
Regarding `CC(=O)c1sc(-c2nc(C)c(C(=O)/C=C\c3ccc(/C=C\C(=O)c4sc(-c5nc(C)c(C(C)=O)s5)nc4C)cc3)s2)nc1C`, the GI50 in the test with DMS-114, with DMS-273, in the test on KM-20L2, in the test with LXFL 529, in the test on M19-MEL and in the test with SNB-78 was > 100 µM (inactive) each time. The GI50 in the test on XF498 is > 100 µM (inactive).
On to `O=C1c2ccccc2C(=O)N1/N=C\c1ccc(Br)cc1`, for which the GI50 with DMS-114, in the test on DMS-273, in the test on KM-20L2, in the test with LXFL 529, in the test with M19-MEL and in the test on RXF 631 was > 10 µM (inactive) each time. The GI50 with SNB-78 and in the test on XF498 was > 10 µM (inactive) throughout.
As for `O=C(NCC(O)CNC(=O)C(F)(F)F)C(F)(F)F`, the GI50 in the test on DMS-114, in the test with DMS-273, with KM-20L2, in the test on LXFL 529, in the test on M19-MEL and in the test with SNB-78 was > 100 µM (inactive) each time. Further, the GI50 with XF498 was > 100 µM (inactive).
As to `COC(=O)C(C(=O)C(=O)Nc1ccc([N+](=O)[O-])cc1[N+](=O)[O-])c1nc2ccc(Cl)cc2nc1O` (stereo unspecified), the GI50 in the test with DMS-114 was 72.4 µM (inactive); in the test on DMS-273, > 100 µM (inactive); with KM-20L2 it was > 100 µM (inactive); in the test with M19-MEL, > 100 µM (inactive); in the test on SNB-78 it was > 100 µM (inactive); in the test with XF498, > 100 µM (inactive).
Take `[O-][S+]1c2ccccc2N=C(c2cccs2)CC1c1ccccc1O` (stereo unspecified): the GI50 in the test with DMS-114 was 37.2 µM (inactive); with KM-20L2, > 100 µM (inactive); in the test on LXFL 529, > 100 µM (inactive); in the test on M19-MEL it was > 100 µM (inactive); with RXF 631, > 100 µM (inactive); in the test with XF498, 32.1 µM (inactive).
In the case of `COc1cccc2c1N[S@](=O)S2`, the GI50 is > 100 µM (inactive) in the test on DMS-273; > 100 µM (inactive) in the test on KM-20L2; 35.3 µM (inactive) in the test on LXFL 529; 35.6 µM (inactive) in the test on M19-MEL; > 100 µM (inactive) in the test on RXF 631; > 100 µM (inactive) with SNB-78. Further, the GI50 in the test on XF498 was 50.8 µM (inactive).
As for `CC(C)N(C(=O)C12C3C4C5(C#N)C3C1(I)C5C42I)C(C)C` (stereo unspecified), the GI50 was > 42.5 µM (inactive) in the test on DMS-114; > 57.7 µM (inactive) with DMS-273; > 66.7 µM (inactive) in the test on KM-20L2; > 71.6 µM (inactive) with LXFL 529; > 58.2 µM (inactive) with M19-MEL; 67.9 µM (inactive) with SNB-78. Further, the GI50 with XF498 is > 100 µM (inactive).
On to `CCOC(=O)C12C(C(=O)OC)=C(C)N(NC(=O)Nc3ccccc3)C1(N)N(NC(=O)Nc1ccccc1)C(C)=C2C(=O)OC` (stereo unspecified), for which the GI50 is 31.9 µM (inactive) with DMS-114; 27.7 µM (inactive) in the test with DMS-273; 20.5 µM (inactive) with KM-20L2; 26.1 µM (inactive) in the test with LXFL 529; 18 µM (inactive) in the test on M19-MEL; 47.4 µM (inactive) with SNB-78. The GI50 in the test on XF498 is 24.3 µM (inactive).
In the case of `CCCOC(=O)C1CCC(=O)N1C(=O)C(Cl)Cl` (stereo unspecified), the GI50 in the test with DMS-114, with DMS-273, with KM-20L2, in the test with LXFL 529, with M19-MEL and in the test with SNB-78 was > 100 µM (inactive) in each case. Moreover, in the test on XF498, the GI50 was > 100 µM (inactive).
On to `CCCCCCCCCCC(=O)CC(=O)c1c(O)cccc1O`, for which the GI50 in the test with DMS-114 is 26.1 µM (inactive); in the test with DMS-273 it was 23.8 µM (inactive); with KM-20L2, 50.2 µM (inactive); in the test with LXFL 529, 36.3 µM (inactive); in the test with M19-MEL, 25.8 µM (inactive); with RXF 631 it was 47.3 µM (inactive). The results for the GI50 with SNB-78 and with XF498 were 33.5 µM (inactive) and 19.5 µM (inactive), respectively.
As to `NC(=O)NC12CC3CC(CC(F)(C3)C1)C2`, the GI50 with DMS-114, in the test on DMS-273, in the test on KM-20L2, in the test on LXFL 529, in the test with M19-MEL and in the test with RXF 631 was > 100 µM (inactive) in each case. The GI50 with SNB-78 and with XF498 was > 100 µM (inactive) throughout.
For the compound `CN(C)CC(C)(C)C(=O)/C=C/c1ccc(/C=C/C(=O)C(C)(C)CN(C)C)cc1`, the GI50 was 1.3 µM (inactive) with DMS-114; 0.706 µM (active) in the test on DMS-273; 1.04 µM (active) in the test with KM-20L2; 1.17 µM (inactive) in the test with LXFL 529; 1.66 µM (inactive) with M19-MEL; 2 µM (inactive) in the test on RXF 631. In the test with XF498, the GI50 was 1.22 µM (inactive).
On to `COC(=O)[C@@]12C(=O)CCC(=O)C1C1C(=CC2C)O[C@@H]2OC3(CCCCC3)O[C@H]12` (stereo partly specified), for which the GI50 in the test with DMS-114 is 48 µM (inactive); in the test on DMS-273, > 100 µM (inactive); in the test with KM-20L2, > 100 µM (inactive); with LXFL 529 it was 44.5 µM (inactive); with M19-MEL, 61.9 µM (inactive); with SNB-78 it was > 100 µM (inactive). Also, the GI50 with XF498 was > 38.4 µM (inactive).
As to `Cc1cc(Cl)ccc1N1C(=O)C(=O)C(c2nc3ccccc3s2)/C(=N\NC(=O)c2ccccc2O)C1=O` (stereo unspecified), the GI50 with DMS-114, in the test on DMS-273, in the test with KM-20L2, in the test on LXFL 529, in the test with M19-MEL and in the test with RXF 631 was > 100 µM (inactive) each time. In the test on SNB-78, the GI50 is > 100 µM (inactive).
